In US20240239790A1, “7-Morpholino-1,6-Naphthyridin-5-yl Derivatives and Pharmaceutical Compositions Thereof Useful as DNA-PK Inhibitor” (adMare Therapeutics Society, priority 2021, published 2024):
Read-outs that look alike come from different tables or passages of the source.

Legend:
[1] = test system: pH2AX induction in HCT116 ATM-/- multicellular tumour spheroids; test: Prodrug Radiation Sensitization in Multicellular Tumour Spheroids, inhibition of pH2AX induction following radiation; format: cell-based; settings: Homo sapiens, HCT-116, 20 Gy
How it was run: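 Endpoint: pH2AX (ser 139) or pDNA-PK (ser 2056) in cryosections fixed 1 or 2 h after 20 Gy, comparing oxygenated outer with hypoxic inner layers. Spheroids of ~0.5 mm (HCT116, FaDu; ATM-deficient cells used) held at 20% or 5% O2, 37 °C, stirred. Prodrug range 3.5 nM–10 μM.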

[2] = molecular target: T1, DNA-PK phosphorylation at Serine 2056 (Homo sapiens, UniProt P78527); test: Cellular Assay for Inhibition of DNA-PK Phosphorylation at Serine 2056 in FaDu cells (sandwich ELISA, neocarzinostatin); format: cell-based; settings: pSer2056 DNA-PK, Table 3
T1 construct: FaDu cells were purchased from ATCC; host or cells: FaDu
How it was run: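 pSer2056 and total DNA-PK were measured by sandwich ELISA in BCA-normalised FaDu lysates. Cells had 1 h compound exposure (0.3% DMSO), then 2 h with 1 μg/mL final neocarzinostatin. IC50 was fitted (variable slope) to % inhibition scaled against NCS-stimulated and DMSO-only controls.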

[3] = test system: FaDu cell line; test: Prodrug Activation in Hypoxic Stirred Tumour Cell Suspensions; settings: 10 μM, 4 hours
[4] = 5% O2, inner layers, read-out: Prodrug 5% O2 Inner layers EC50
[5] = 5% O2, outer layers, read-out: Prodrug 5% O2 Outer layers EC50
[6] = 20% O2, outer layers, read-out: Prodrug 20% O2 Outer layers EC50

Row | SMILES | EC50 [1, 4] | EC50 [1, 5] | EC50 [1, 6] | IC50 [2] | Fraction of prodrug converted to active form, Hypoxic 0.2% O2 [3] | Fraction of prodrug converted to active form, Oxic 5% O2 [3]
1 | CN1CCN(c2cnc(N[C@H]3CC[C@@H](Oc4nc(N5CCOCC5)cc5ncc(N(Cc6cnn(C)c6[N+](=O)[O-])S(C)(=O)=O)cc45)CC3)nc2)CC1 [LFA2072, N-[(1-methyl-5-nitro-pyrazol-4-yl)methyl]-N-[5-[4-[[5-(4-methylpiperazin-1-yl)pyrimidin-2-yl]amino]cyclohexoxy]-7-morpholino-1,6-naphthyridin-3-yl]methanesulfonamide] | 10 to 500 nM | 10 to 500 nM | 1000 to 10000 nM | 1000 to 10000 nM | B (B is 0.05 to 0.15) | B (B is 0.05 to 0.15)
2 | Cn1ncc(CN(c2cnc3cc(N4CCOCC4)nc(O[C@H]4CC[C@@H](Nc5ncc(OCCN6CCOCC6)cn5)CC4)c3c2)S(C)(=O)=O)c1[N+](=O)[O-] [LFA2076, N-[(1-methyl-5-nitro-pyrazol-4-yl)methyl]-N-[7-morpholino-5-[4-[[5-(2-morpholinoethoxy)pyrimidin-2-yl]amino]cyclohexoxy]-1,6-naphthyridin-3-yl]methanesulfonamide] | 10 to 500 nM | 10 to 500 nM | 10 to 500 nM | 1000 to 10000 nM | B (B is 0.05 to 0.15) | B (B is 0.05 to 0.15)
3 | Cn1c(COc2cnc3cc(N4CCOCC4)nc(O[C@H]4CC[C@@H](Nc5cncc(C(F)(F)F)n5)CC4)c3c2)cnc1[N+](=O)[O-] [LFA2097, N-[4-[[3-[(3-methyl-2-nitro-imidazol-4-yl)methoxy]-7-morpholino-1,6-naphthyridin-5-yl]oxy]cyclohexyl]-6-(trifluoromethyl)pyrazin-2-amine] | 10000 to 100000 nM | 10000 to 100000 nM | 10000 to 100000 nM | 10000 to 30000 nM | C (C is 0.02 to 0.05) | D (D is 0 to 0.02)
4 | CN1CCN(CCOc2cnc(N[C@H]3CC[C@@H](Oc4nc(N5CCOCC5)cc5ncc(N(Cc6cnc([N+](=O)[O-])n6C)S(C)(=O)=O)cc45)CC3)nc2)CC1 [LFA2059, N-[(3-methyl-2-nitro-imidazol-4-yl)methyl]-N-[5-[4-[[5-[2-(4-methylpiperazin-1-yl)ethoxy]pyrimidin-2-yl]amino]cyclohexoxy]-7-morpholino-1,6-naphthyridin-3-yl]methanesulfonamide] | 1000 to 10000 nM | 1000 to 10000 nM | 1000 to 10000 nM | 1000 to 10000 nM | B (B is 0.05 to 0.15) | D (D is 0 to 0.02)
5 | CN(C)Cc1cnc(N[C@H]2CC[C@@H](Oc3nc(N4CCOCC4)cc4ncc(OCc5cnc([N+](=O)[O-])n5C)cc34)CC2)nc1 [LFA2086, 5-[(dimethylamino)methyl]-N-[4-[[3-[(3-methyl-2-nitro-imidazol-4-yl)methoxy]-7-morpholino-1,6-naphthyridin-5-yl]oxy]cyclohexyl]pyrimidin-2-amine] | 1000 to 10000 nM | 1000 to 10000 nM | 1000 to 10000 nM | 10000 to 30000 nM | D (D is 0 to 0.02) | D (D is 0 to 0.02)
6 | Cn1c(CN(c2cnc3cc(N4CCOCC4)nc(O[C@H]4CC[C@@H](Nc5nccnc5C#N)CC4)c3c2)S(C)(=O)=O)cnc1[N+](=O)[O-] [LFA2102, N-[5-[4-[(3-cyanopyrazin-2-yl)amino]cyclohexoxy]-7-morpholino-1,6-naphthyridin-3-yl]-N-[(3-methyl-2-nitro-imidazol-4-yl)methyl]methanesulfonamide] | 10 to 500 nM | 1000 to 10000 nM | 1000 to 10000 nM | 10000 to 30000 nM | C (C is 0.02 to 0.05) | D (D is 0 to 0.02)
7 | CC(c1cnn(C)c1[N+](=O)[O-])N(c1cnc2cc(N3CCOCC3)nc(OC3CCC(Nc4ccn5nccc5n4)CC3)c2c1)S(C)(=O)=O (stereo not drawn) [LFA2050, N-[1-(1-methyl-5-nitro-pyrazol-4-yl)ethyl]-N-[7-morpholino-5-[4-(pyrazolo[1,5-a]pyrimidin-5-ylamino)cyclohexoxy]-1,6-naphthyridin-3-yl]methanesulfonamide] | 10 to 500 nM | 1000 to 10000 nM | 1000 to 10000 nM | 1000 to 10000 nM | B (B is 0.05 to 0.15) | B (B is 0.05 to 0.15)
8 | CC(c1cnn(C)c1[N+](=O)[O-])N(c1cnc2cc(N3CCOCC3)nc(O[C@H]3CC[C@@H](Nc4ncc(N5CCN(C)CC5)cn4)CC3)c2c1)S(C)(=O)=O (stereo partly drawn) [LFA2067, N-[1-(1-methyl-5-nitro-pyrazol-4-yl)ethyl]-N-[5-[4-[[5-(4-methylpiperazin-1-yl)pyrimidin-2-yl]amino]cyclohexoxy]-7-morpholino-1,6-naphthyridin-3-yl]methanesulfonamide] | 10 to 500 nM | 500 to 1000 nM | 1000 to 10000 nM | 1000 to 10000 nM | B (B is 0.05 to 0.15) | B (B is 0.05 to 0.15)
9 | CC(c1cnc([N+](=O)[O-])n1C)N(c1cnc2cc(N3CCOCC3)nc(O[C@H]3CC[C@@H](Nc4ncc(OCCN(C)C)cn4)CC3)c2c1)S(C)(=O)=O (stereo partly drawn) [LFA2061, N-[5-[4-[[5-[2-(dimethylamino)ethoxy]pyrimidin-2-yl]amino]cyclohexoxy]-7-morpholino-1,6-naphthyridin-3-yl]-N-[1-(3-methyl-2-nitro-imidazol-4-yl)ethyl]methanesulfonamide] | 500 to 1000 nM | 1000 to 10000 nM | 10000 to 100000 nM | 10000 to 30000 nM | B (B is 0.05 to 0.15) | D (D is 0 to 0.02)
10 | CC(c1cnc([N+](=O)[O-])n1C)N(c1cnc2cc(N3CCOCC3)nc(O[C@H]3CC[C@@H](Nc4nccnc4C#N)CC3)c2c1)S(C)(=O)=O (stereo partly drawn) [LFA2100, N-[5-[4-[(3-cyanopyrazin-2-yl)amino]cyclohexoxy]-7-morpholino-1,6-naphthyridin-3-yl]-N-[1-(3-methyl-2-nitro-imidazol-4-yl)ethyl]methanesulfonamide] | 10 to 500 nM | 1000 to 10000 nM | 10000 to 100000 nM | 10000 to 30000 nM | C (C is 0.02 to 0.05) | D (D is 0 to 0.02)
11 | CC(Oc1cnc2cc(N3CCOCC3)nc(O[C@H]3CC[C@@H](Nc4ncc(N5CCN(C)CC5)cn4)CC3)c2c1)c1cnc([N+](=O)[O-])n1C (stereo partly drawn) [LFA2066, N-[4-[[3-[1-(3-methyl-2-nitro-imidazol-4-yl)ethoxy]-7-morpholino-1,6-naphthyridin-5-yl]oxy]cyclohexyl]-5-(4-methylpiperazin-1-yl)pyrimidin-2-amine] | 10 to 500 nM | 1000 to 10000 nM | 1000 to 10000 nM | 10000 to 30000 nM | A (A is 0.15 to 1) | B (B is 0.05 to 0.15)
12 | CC(c1cnc([N+](=O)[O-])n1C)N(c1cnc2cc(N3CCOCC3)nc(OC3CCC(Nc4ncc(N5CCN(CC(F)(F)F)CC5)cn4)CC3)c2c1)S(C)(=O)=O (stereo not drawn) [LFA2046, N-[1-(3-methyl-2-nitro-imidazol-4-yl)ethyl]-N-[7-morpholino-5-[4-[[5-[4-(2,2,2-trifluoroethyl)piperazin-1-yl]pyrimidin-2-yl]amino]cyclohexoxy]-1,6-naphthyridin-3-yl]methanesulfonamide] | 500 to 1000 nM | 1000 to 10000 nM | 1000 to 10000 nM | 10000 to 30000 nM | D (D is 0 to 0.02) | D (D is 0 to 0.02)
13 | CC(c1cnc([N+](=O)[O-])n1C1CC1)N(c1cnc2cc(N3CCOCC3)nc(OC3CCC(Nc4ccn5nccc5n4)CC3)c2c1)S(C)(=O)=O (stereo not drawn) [LFA2051, N-[1-(3-cyclopropyl-2-nitro-imidazol-4-yl)ethyl]-N-[7-morpholino-5-[4-(pyrazolo[1,5-a]pyrimidin-5-ylamino)cyclohexoxy]-1,6-naphthyridin-3-yl]methanesulfonamide] | 10 to 500 nM | 1000 to 10000 nM | 1000 to 10000 nM | 10000 to 30000 nM | A (A is 0.15 to 1) | D (D is 0 to 0.02)
14 | CC(c1cnc([N+](=O)[O-])n1C1CC1)N(c1cnc2cc(N3CCOCC3)nc(O[C@H]3CC[C@@H](Nc4ncccn4)CC3)c2c1)S(C)(=O)=O (stereo partly drawn) [LFA2055, N-[1-(3-cyclopropyl-2-nitro-imidazol-4-yl)ethyl]-N-[7-morpholino-5-[4-(pyrimidin-2-ylamino)cyclohexoxy]-1,6-naphthyridin-3-yl]methanesulfonamide] | 10 to 500 nM | 10 to 500 nM | 1000 to 10000 nM | 1000 to 10000 nM | A (A is 0.15 to 1) | D (D is 0 to 0.02)
